Laboratory results from paper PMC5431883, “Enhancing Specific Disruption of Intracellular Protein Complexes by Hydrocarbon Stapled Peptides Using Lipid Based Delivery” (Scientific Reports, 2017).
Positions of bridges follow the written chain, without caps; N, C: chain ends. Non-standard residues stand in square brackets, D forms with d. Residues, ends and D or L forms follow the SMILES beside them. *: point of attachment. Biotin = O=C1N[C@H]2[C@H](CS[C@H]2CCCCC(=O)*)N1; R8 = C=CCCCCCC[C@@](C)(N)C(=O)O; Cba = N[C@@H](CC1CCC1)C(=O)O; S5 = C=CCCC[C@](C)(N)C(=O)O; Ahx = NCCCCCC(=O)O

Target: T1, Mdm2 (1-125) (Homo sapiens, UniProt Q00987)
T1 construct: Purified MDM2 (1-125) protein was titrated against 50 nM carboxyfluorescein (FAM)-labeled; GST (N, cleaved yes); made in house; host or cells: E. coli BL21 DE3 (pGEX-6P-1)
T1 sequence (Q00987 1-125): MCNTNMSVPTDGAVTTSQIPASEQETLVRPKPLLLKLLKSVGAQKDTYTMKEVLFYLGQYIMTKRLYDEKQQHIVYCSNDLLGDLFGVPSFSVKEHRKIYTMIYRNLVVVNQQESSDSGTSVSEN
Test: Mdm2 competitive fluorescence anisotropy assay (FAM-labeled 12/1 peptide displacement); note: 250 nM MDM2
Assay type: binding
Conditions: read-out: Kd (apparent dissociation constant, competitive fluorescence anisotropy)
Procedure: analyzed with SDS page gel and concentrated using a Centricon (3.5 kDa MWCO) concentrator, Millipore. Mdm2 protein samples were then dialyzed into a buffer solution containing 20mM Bis-Tris, pH 6.5, 0.05M NaCl with 1mM DTT and loaded onto a monoS column pre-equilibrated in buffer A (20mM Bis-Tris, pH 6.5, 1mM DTT). The column was then washed in 6 column volumes of buffer A and bound protein was eluted with a linear gradient of 1M NaCL over 25 column volumes. Protein fractions were analyzed with SDS page gel and concentrated using a Centricon (3.5 kDa MWCO) concentrator, Millipore.
Protein concentration was determined using A280 using an extinction coefficients […]
Mdm2 Competitive Fluorescence Anisotropy Assay and Kd Determination […]
Dissociation constants for titration of MDM2 against […]
equation shown below:25,26
[P] is the protein concentration (MDM2), [L] is the labeled peptide concentration, r is the anisotropy measured, r0 is the anisotropy of the free peptide, rb is the anisotropy of the MDM2– FAM-labeled peptide complex, Kd is the dissociation constant, [L]t is the total FAM labeled
(1 picture or pasted object on this page, not shown here) […]
peptide concentration, and [P]t is the total MDM2 concentration. […]
respective competing ligands in subsequent competition assays.
Apparent Kd values were determined for a variety of molecules via competitive fluorescence anisotropy experiments. Titrations were carried out with the concentration of MDM2 held constant […]
The competing molecules were then titrated against the complex of the FAM-labeled peptide and protein. Apparent Kd values were determined by fitting the experimental data to the equations shown below:26,27 […]
[L]st and [L]t denote labeled ligand and total unlabeled ligand input concentrations, respectively.
Kd2 is the dissociation constant of the interaction between the unlabeled ligand and the protein. In […]
all competitive types of experiments, it is assumed that [P]t > [L]st, otherwise considerable amounts of free labeled ligand would always be present and would interfere with measurements. Kd1 is the […]
experimentally determined as described in the previous paragraph. The FAM-labeled peptide was dissolved in dimethyl sulfoxide (DMSO) at 1 mM and diluted into experimental buffer. Readings were carried out with an Envision Multilabel Reader (PerkinElmer). Experiments were carried out […]
Tween 20 buffer. All titrations were carried out in triplicate. Curve-fitting was carried out using […]
Negative control titrations of the ligands under investigation were also carried out with the fluorescently labeled peptide (in the absence of MDM2) to ensure no interactions were occurring between the ligands and FAM-labeled peptide. […]
which would otherwise indicate an unintended interaction between the ligand and the FAM-labeled peptide to be displaced from the MDM2 binding site. […]

Row | Kd | Compound
1 | < 0.001 µM | CC(=O)N[C@H](C(=O)N[C@@H](CO)C(=O)N[C@@H](Cc1ccccc1)C(=O)N[C@]1(C)CCCCCCC=CCCC[C@@](C)(C(=O)N[C@@H](CCC(=O)O)C(N)=O)NC(=O)[C@H](CC(C)C)NC(=O)[C@H](CC(C)C)NC(=O)[C@H](C)NC(=O)[C@H](Cc2c[nH]c3cc(Cl)ccc23)NC(=O)[C@H](Cc2ccc(O)cc2)NC(=O)[C@H](CCC(=O)O)NC1=O)[C@@H](C)O [VIP-137]
2 | 0.0151 ± 0.0017 µM | CC(=O)N[C@@H](CCCCN)C(=O)NCCCCCC(=O)N[C@H](C(=O)N[C@@H](CO)C(=O)N[C@@H](Cc1ccccc1)C(=O)N[C@]1(C)CCCCCCC=CCCC[C@@](C)(C(=O)N[C@@H](CCC(=O)O)C(=O)N[C@@H](CC(N)=O)C(=O)N[C@@H](Cc2ccccc2)C(N)=O)NC(=O)[C@H](CC(C)C)NC(=O)[C@H](CC(C)C)NC(=O)[C@H](C)NC(=O)[C@H](Cc2c[nH]c3ccccc23)NC(=O)[C@H](Cc2ccc(O)cc2)NC(=O)[C@H](CCC(=O)O)NC1=O)[C@@H](C)O [VIP-116]
3 | 0.0018 ± 0.0007 µM | CC(=O)N[C@@H](CC(C)C)C(=O)N[C@H](C(=O)N[C@@H](Cc1ccccc1)C(=O)N[C@]1(C)CCCCCCC=CCCC[C@@](C)(C(=O)N[C@@H](CCC(=O)O)C(=O)N[C@@H](CC(N)=O)C(=O)N[C@@H](Cc2ccccc2)C(N)=O)NC(=O)[C@H](CC(C)C)NC(=O)[C@H](CC(C)C)NC(=O)[C@H](C)NC(=O)[C@H](Cc2c[nH]c3ccccc23)NC(=O)[C@H](Cc2ccc(O)cc2)NC(=O)[C@H](CCC(=O)O)NC1=O)[C@@H](C)O [VIP-120] (Ac-LTF[R8]EYWALL[S5]ENF-NH2; staple 4-11)
4 | > 10 µM | CC(=O)N[C@@H](CCCNC(=N)N)C(=O)N[C@@H](CCCNC(=N)N)C(=O)N[C@@H](CCCNC(=N)N)C(=O)NCCCCCC(=O)N[C@H](C(=O)N[C@@H](CO)C(=O)N[C@@H](CC(C)C)C(=O)N[C@]1(C)CCCCCCC=CCCC[C@@](C)(C(=O)N[C@@H](CCC(=O)O)C(=O)N[C@@H](CC(N)=O)C(=O)N[C@@H](Cc2ccccc2)C(N)=O)NC(=O)[C@H](Cc2c[nH]c3ccccc23)NC(=O)[C@H](CC(C)C)NC(=O)[C@H](C)NC(=O)[C@H](Cc2ccccc2)NC(=O)[C@H](Cc2ccc(O)cc2)NC(=O)[C@H](CCC(=O)O)NC1=O)[C@@H](C)O [VIP-128 SCRAM] (Ac-RRR[Ahx]TSL[R8]EYFALW[S5]ENF-NH2; staple 8-15)
5 | 0.0462 ± 0.0033 µM | CC(C)C[C@@H]1NC(=O)[C@H](C)NC(=O)[C@H](Cc2c[nH]c3ccccc23)NC(=O)[C@H](Cc2ccc(O)cc2)NC(=O)[C@H](CCC(=O)O)NC(=O)[C@](C)(NC(=O)[C@H](Cc2ccccc2)NC(=O)[C@H](CO)NC(=O)[C@@H](NC(=O)CCCCCNC(=O)CCCC[C@@H]2SC[C@@H]3NC(=O)N[C@@H]32)[C@@H](C)O)CCCCCCC=CCCC[C@@](C)(C(=O)N[C@@H](CCC(=O)O)C(=O)N[C@@H](CC(N)=O)C(=O)N[C@@H](Cc2ccc(O)cc2)C(N)=O)NC(=O)[C@H](CC(C)C)NC1=O [VIP-87]
6 | > 10 µM | CC(=O)N[C@@H](CCCCN)C(=O)N[C@@H](CCCCN)C(=O)N[C@@H](CCCCN)C(=O)NCCCCCC(=O)N[C@H](C(=O)N[C@@H](CO)C(=O)N[C@@H](CC(C)C)C(=O)N[C@]1(C)CCCCCCC=CCCC[C@@](C)(C(=O)N[C@@H](CCC(=O)O)C(=O)N[C@@H](CC(N)=O)C(=O)N[C@@H](Cc2ccccc2)C(N)=O)NC(=O)[C@H](Cc2c[nH]c3ccccc23)NC(=O)[C@H](CC(C)C)NC(=O)[C@H](C)NC(=O)[C@H](Cc2ccccc2)NC(=O)[C@H](Cc2ccc(O)cc2)NC(=O)[C@H](CCC(=O)O)NC1=O)[C@@H](C)O [VIP-127 SCRAM] (Ac-KKK[Ahx]TSL[R8]EYFALW[S5]ENF-NH2; staple 8-15)
7 | 0.0336 ± 0.0056 µM | CC(=O)N[C@@H](CCCCN)C(=O)N[C@@H](CCCCN)C(=O)N[C@@H](CO)C(=O)NCC(=O)N[C@@H](CO)C(=O)NCC(=O)N[C@H](C(=O)N[C@@H](CO)C(=O)N[C@@H](Cc1ccccc1)C(=O)N[C@]1(C)CCCCCCC=CCCC[C@@](C)(C(N)=O)NC(=O)[C@H](CC(C)C)NC(=O)[C@H](CC(C)C)NC(=O)[C@H](C)NC(=O)[C@H](Cc2c[nH]c3ccccc23)NC(=O)[C@H](Cc2ccc(O)cc2)NC(=O)[C@H](CCC(=O)O)NC1=O)[C@@H](C)O [VIP-151] (Ac-KKSGSGTSF[R8]EYWALL[S5]-NH2; staple 10-17)

Continued, molecule first:

Row | Compound | Kd
8 | CC(=O)N[C@@H](CCCNC(=N)N)C(=O)N[C@@H](CCCNC(=N)N)C(=O)N[C@@H](CCCNC(=N)N)C(=O)NCCCCCC(=O)N[C@H](C(=O)N[C@@H](CO)C(=O)N[C@@H](Cc1ccccc1)C(=O)N[C@]1(C)CCCCCCC=CCCC[C@@](C)(C(=O)N[C@@H](CCC(=O)O)C(=O)N[C@@H](CC(N)=O)C(=O)N[C@@H](Cc2ccccc2)C(N)=O)NC(=O)[C@H](CC(C)C)NC(=O)[C@H](CC(C)C)NC(=O)[C@H](C)NC(=O)[C@H](Cc2c[nH]c3ccccc23)NC(=O)[C@H](Cc2ccc(O)cc2)NC(=O)[C@H](CCC(=O)O)NC1=O)[C@@H](C)O [VIP-80] (Ac-RRR[Ahx]TSF[R8]EYWALL[S5]ENF-NH2; staple 8-15) | 0.045 ± 0.0041 µM
9 | CC(C)C[C@@H]1NC(=O)[C@H](C)NC(=O)[C@H](Cc2c[nH]c3ccccc23)NC(=O)[C@H](Cc2ccc(O)cc2)NC(=O)[C@H](CCC(=O)O)NC(=O)[C@](C)(NC(=O)[C@H](Cc2ccccc2)NC(=O)[C@H](CO)NC(=O)[C@@H](NC(=O)CCCCCNC(=O)CCCC[C@@H]2SC[C@@H]3NC(=O)N[C@@H]32)[C@@H](C)O)CCCCCCC=CCCC[C@@](C)(C(N)=O)NC(=O)[C@H](CC2CCC2)NC1=O [VIP-68] ({Biotin-Ahx}-TSF[R8]EYWAL[Cba][S5]-NH2; staple 4-11) | 0.0416 ± 0.0017 µM
10 | CC(=O)N[C@@H](CCCNC(=N)N)C(=O)N[C@@H](CCCNC(=N)N)C(=O)N[C@@H](CCCNC(=N)N)C(=O)NCCCCCC(=O)N[C@H](C(=O)N[C@@H](CO)C(=O)N[C@@H](Cc1ccccc1)C(=O)N[C@]1(C)CCCCCCC=CCCC[C@@](C)(C(N)=O)NC(=O)[C@H](CC(C)C)NC(=O)[C@H](CC(C)C)NC(=O)[C@H](C)NC(=O)[C@H](Cc2c[nH]c3ccccc23)NC(=O)[C@H](Cc2ccc(O)cc2)NC(=O)[C@H](CCC(=O)O)NC1=O)[C@@H](C)O [VIP-78] | 0.0788 ± 0.0082 µM
11 | CC(=O)N[C@@H](Cc1c[nH]cn1)C(=O)N[C@@H](Cc1c[nH]cn1)C(=O)N[C@@H](Cc1c[nH]cn1)C(=O)NCCCCCC(=O)N[C@H](C(=O)N[C@@H](CO)C(=O)N[C@@H](Cc1ccccc1)C(=O)N[C@]1(C)CCCCCCC=CCCC[C@@](C)(C(N)=O)NC(=O)[C@H](CC(C)C)NC(=O)[C@H](CC(C)C)NC(=O)[C@H](C)NC(=O)[C@H](Cc2c[nH]c3ccccc23)NC(=O)[C@H](Cc2ccc(O)cc2)NC(=O)[C@H](CCC(=O)O)NC1=O)[C@@H](C)O [VIP-79] | 0.13 ± 0.0117 µM
12 | CC(C)C[C@@H]1NC(=O)[C@H](C)NC(=O)[C@H](Cc2c[nH]c3ccccc23)NC(=O)[C@H](Cc2ccc(O)cc2)NC(=O)[C@H](CCC(=O)O)NC(=O)[C@](C)(NC(=O)[C@H](Cc2ccccc2)NC(=O)[C@H](CO)NC(=O)[C@@H](NC(=O)CCCCCNC(=O)CCCC[C@@H]2SC[C@@H]3NC(=O)N[C@@H]32)[C@@H](C)O)CCCCCCC=CCCC[C@@](C)(C(=O)N[C@@H](CCC(=O)O)C(=O)N[C@@H](CC(N)=O)C(=O)N[C@@H](Cc2ccccc2)C(N)=O)NC(=O)[C@H](CC(C)C)NC1=O [VIP-83] | 0.0246 ± 0.0022 µM
13 | CC(=O)N[C@@H](Cc1c[nH]cn1)C(=O)N[C@@H](Cc1c[nH]cn1)C(=O)N[C@@H](Cc1c[nH]cn1)C(=O)NCCCCCC(=O)N[C@H](C(=O)N[C@@H](CO)C(=O)N[C@@H](Cc1ccccc1)C(=O)N[C@]1(C)CCCCCCC=CCCC[C@@](C)(C(=O)N[C@@H](CCC(=O)O)C(=O)N[C@@H](CC(N)=O)C(=O)N[C@@H](Cc2ccccc2)C(N)=O)NC(=O)[C@H](CC(C)C)NC(=O)[C@H](CC(C)C)NC(=O)[C@H](C)NC(=O)[C@H](Cc2c[nH]c3ccccc23)NC(=O)[C@H](Cc2ccc(O)cc2)NC(=O)[C@H](CCC(=O)O)NC1=O)[C@@H](C)O [VIP-81] (Ac-HHH[Ahx]TSF[R8]EYWALL[S5]ENF-NH2; staple 8-15) | 0.0612 ± 0.0065 µM
14 | CC(C)C[C@@H]1NC(=O)[C@H](C)NC(=O)[C@H](Cc2c[nH]c3ccccc23)NC(=O)[C@H](Cc2ccc(O)cc2)NC(=O)[C@H](CCC(=O)O)NC(=O)[C@](C)(NC(=O)[C@H](Cc2ccccc2)NC(=O)[C@H](CO)NC(=O)[C@@H](NC(=O)CCCCCNC(=O)CCCC[C@@H]2SC[C@@H]3NC(=O)N[C@@H]32)[C@@H](C)O)CCCCCCC=CCCC[C@@](C)(C(N)=O)NC(=O)[C@H](CC(C)C)NC1=O [VIP-67] | 0.1 ± 0.0077 µM
